The results in this text go back to patent publication US20240368149A1, “ANALOGS OF XANOMELINE” (Terran Biosciences Inc., priority 2023, published 2024).

Values joined by “and” are separate entries in the source; they are usually repeats but may differ in a detail not shown here. Equal values may be shown once.

Type in all cases: in vivo, male Sprague-Dawley (SD) rats
The nature of series [1]: Rat PK: plasma xanomeline after oral (PO) dosing of xanomeline or xanomeline prodrugs at 10 mg/kg (Example A-7). Particulars: analyte xanomeline in plasma, 10 mg/kg of xanomeline. Here is the method: Samples were sent for method optimization and measurement of parent compound (xanomeline) via unique calibration lines and following acceptance QC's. Dose formulation concentrations were also measured, and PK parameters were determined (Cmax (ng/mL), Tmax (hr), Cl (ml/min/kg), Vdss (L/kg), t½ (hr), AUC0-t (ng/mL*hr), AUC0-inf (ng/mL*hr), MRT (hr), Bioavailability (% F) where warranted) using WinNon Lin software. Data (including bioanalytical results and assay performance) were reported in a tabulated format and QC'd.
Compound was dissolved in DMSO:HPCD (20% w/v in water) [10:90] 2 mg API/mL to provide doses of 10 mg API/kg when administered PO in 5 mL/kg dosing volumes.
The pharmacokinetic properties of the synthesized xanomeline prodrugs after oral administration in a rat model were assessed. The concentration of xanomeline was measured in each rat at various sampling timepoints after oral administration of xanomeline or the synthesized xanomeline prodrugs to rats.
Dose formulations were made at equivalent concentrations of active compound (xanomeline) adjusted for molecular weight of the compounds. The synthesized xanomeline prodrugs were dosed at 10 mg/kg oral (PO) nominal dose. Nominal doses were used in PK parameter determinations. The parent compound (xanomeline) was dosed at 10 mg/kg oral (PO).

A short description of series [2]: Rat PK: plasma xanomeline after single subcutaneous (SC) dosing of xanomeline or xanomeline prodrugs at 1 mg/kg (Example A-1). Particulars: xanomeline analyte in plasma; for AUC(0-inf): read-out: AUCINF_obs; for half-life: read-out: T½ (converted). Here is the method:
A pharmacokinetic (PK) study was performed in three male Sprague-Dawley (SD) rats following subcutaneous (SC) administration of xanomeline or test compounds (prodrugs of xanomeline) at 1 mg/kg. Parent compound (xanomeline) was measured in plasma.
Samples were sent for method optimization and measurement of parent compound (xanomeline) via unique calibration lines and following acceptance QC's. Dose formulation concentrations were also measured, and PK parameters were determined (Cmax (ng/mL), Tmax (hr), Cl (ml/min/kg), Vdss (L/kg), t½(hr), AUC0-t (ng/mL*hr), AUC0-inf (ng/mL*hr), MRT (hr), Bioavailability (% F) where warranted) using WinNon Lin software. Data (including bioanalytical results and assay performance) were reported in a tabulated format
• Step 1: A stock solution of the compound(s) were prepared to 1 mg/ml in DMSO • Step 2: A 10,000 ng/mL matched matrix standard was prepared using the stock solution(s) • Step 3: Calibration standards in matched matrix were prepared between 10,000 ng/ml and 0.5 ng/mL using serial dilution • Step 4: QC samples were prepared in matched matrix at 4000, 800, 400, 40 and 10 ng/mL Calibration Standards:
• Step 1: A stock of the IS was diluted to 1 mg/ml in DMSO • Step 2: An ISY is made by diluting the stock to 10 μg/ml in DMSO • Step 3: An ISZ is made by diluting the ISY to 25 ng/ml in 0.1% formic acid in acetonitrile
(§1) • Step 1: Add 10 μL of the standards, QCs and samples to a 96-well plate (extraction plate) • Step 2: To each standard, QC and test sample, add 100 μL of ISZ • Step 3: Sonicate for 2 min then mix the plate for approximately 2 min at 1200 rpm on a plate shaker • Step 4: Centrifuge the plate at 3000 rpm for 5 mins • Step 5: Add 50 μL 0.1% Formic acid in UP H2O to wells of a new 96-well plate • Step 6: Transfer 50 μL extracted sample to relevant position in second 96-well plate • Step 7: Mix at 1200 rpm for 2 minutes • Step 8: Heat seal and analyse on the LC-MS/MS system • Instrument: Xevo TQ-D with CTC Autosampler
• Step 1: A stock solution of the compound(s) were prepared to 1 mg/ml in DMSO • Step 2: A 10,000 ng/mL matched matrix standard was prepared using the stock solution(s) • Step 3: A 2,000 ng/ml matched matrix stock dilution was made from the 10,000 ng/ml stock dilution • Step 4: Standards were prepared at a concentration of 200 ng/ml to 0.01 ng/ml in matched matrix via serial dilution from the second Stock dilution • Step 5: QC samples were prepared in matched matrix at 150, 40, 20, 4 and 0.4 ng/mL Calibration Standards:
as §1, with “min” for “mins”, “formic” for “Formic”, “min” for “minutes”, “TQ-Absolute UHPLC-MS/MS” for “TQ-D with CTC Autosampler”
Formulation for SC administration: For SC dosing, xanomeline and xanomeline prodrugs were formulated as solution in 10% DMSO/90% HPCD (20% in water) to a concentration of 0.5 mg free metabolite material/mL. This provided a dose of 1 mg free metabolite/kg when administered SC in 2 mL/kg dosing volumes.
(§2) The pharmacokinetic properties of the synthesized xanomeline prodrugs after subcutaneous administration in a rat model were assessed. The concentration of xanomeline was measured in each rat at various sampling timepoints after subcutaneous administration of xanomeline or the synthesized xanomeline prodrugs to rats.
Dose formulations were made at equivalent concentrations of active compound (xanomeline) adjusted for molecular weight of the compounds. The synthesized xanomeline prodrugs were dosed at 1 mg/kg subcutaneous (SC) nominal dose. […]

Series [3] can be described thus: Rat PK: plasma xanomeline after subcutaneous (SC) dosing of xanomeline, prodrugs or pamoate salts at 5 mg/kg or 3.5 mg/kg (Example A-2). Particulars: parent xanomeline dosed SC; for Tmax / Cmax / AUC(0-inf) / AUC(0-t) / half-life: male, Sprague-Dawley; for AUC(0-inf): read-out: Xanomeline (SC) AUC0-inf; for AUC(0-t): read-out: Xanomeline (SC) AUC0-last; for half-life: read-out: Xanomeline (SC) T1/2 (converted). Here is the method: Samples were sent for method optimization and measurement of parent compound (xanomeline) via unique calibration lines and following acceptance QC's. Dose formulation concentrations were also measured, and PK parameters were determined (Cmax (ng/mL), Tmax (hr), Cl (ml/min/kg), Vdss (L/kg), t½ (hr), AUC0-t (ng/mL*hr), AUC0-inf (ng/mL*hr), MRT (hr), Bioavailability (% F) where warranted) using WinNon Lin software. Data (including bioanalytical results and assay performance) were reported in a tabulated format.
Formulation for SC administration: For SC dosing, xanomeline and xanomeline prodrugs were formulated as solution in 10% DMSO/90% HPCD (20% in water) to a concentration of 2.5 mg free metabolite material/mL or 1.75 mg free metabolite material/mL. This provided a dose of 5 mg free metabolite/kg or 3.5 mg free metabolite/kg, respectively, when administered SC in 2 mL/kg dosing volumes.
as §2
Dose formulations were made at equivalent concentrations of active compound (xanomeline) adjusted for molecular weight of the compounds. The synthesized xanomeline prodrugs were dosed at 5 mg/kg subcutaneous (SC) nominal dose except for xanomeline oxyisobutyl pivalate chloride prodrug and xanomeline oxypropyl pivalate chloride prodrug, which were dosed at 3.5 mg/kg subcutaneous. Nominal doses were used in PK parameter determinations. The parent compound (xanomeline) was dosed at 5 mg/kg subcutaneous (SC).

The mark [4] stands for this setting: male, Sprague-Dawley, plasma, sc, Mean of animals (Table 3).
[5] abbreviates: male, Sprague-Dawley, plasma, sc, individual animal (Table 3).

Turning to “xanomeline methyl hexylcarbonate chloride prodrug”, the “Xanomeline Tlast” value was 2.67 h in series [1] (Mean of 3 animals); 1.00 h and 7.00 h in series [1] (individual animal, 10 mg/kg).

By Tmax is commonly meant the time from dosing to the highest level. Broadly, the Cmax is the maximum level reached in the sampled fluid or tissue. `CCCCCCOc1nsnc1C1=CCCN(C)C1` [Xanomeline, 3-hexyloxy-4-(1-methyl-3,6-dihydro-2H-pyridin-5-yl)-1,2,5-thiadiazole]: the time to peak (Tmax) in series [2] (male, Sprague-Dawley, in vivo, individual animal (Table 3)) was 0.25 h. In series [2] (setting [4]), the AUC(0-t) came to 38.3 ng·h/mL, the AUC(0-inf) stood at 42 ng·h/mL and the half-life was 1.85 h. In addition, the Cmax in series [2] (male, Sprague-Dawley, plasma, sc, Mean of animals (Table 3), read-out: Cmax) is 14.4 ng/mL. Besides, in series [2] (setting [5]), the AUC(0-t) stood at 40.1 ng·h/mL, the AUC(0-inf) came to 46 ng·h/mL and the half-life is 2.3 h. The highest concentration (Cmax) in series [2] (male, Sprague-Dawley, plasma, sc, individual animal (Table 3), read-out: Cmax) amounted to 15.9 ng/mL. The Tmax in series [2] (male, Sprague-Dawley, Mean of animals (Table 3)) stood at 0.25 h. Also, the Tlast in series [2] (Mean of animals (Table 3)) was 7.00 h. Further, in series [2] (individual animal (Table 3)), the AUCINF_obs was 42.9 ng·h/mL and 37.0 ng·h/mL; the AUClast was 40.0 ng·h/mL and 34.9 ng·h/mL; the Cmax was 15.1 ng/mL and 12.3 ng/mL; the Tlast stood at 7.00 h. Moreover, the T½ in series [2] (individual animal (Table 3)) is 1.66 h and 1.58 h. For the same molecule, the time of peak concentration (Tmax) in series [3] (in vivo, individual animals) turned out to be 1 h. In addition, in series [3] (plasma, sc, Mean), the Cmax is 43 ng/mL, the Tmax is 0.833 h, the AUC(0-inf) worked out at 154 ng·h/mL and the AUC(0-t) was 171 ng·h/mL. For the same molecule, the half-life in series [3] (plasma, sc, Mean) was 1.37 h. For the same molecule, in series [3] (plasma, sc, individual animals), the Cmax is 54.6 ng/mL, the Tmax is 0.5 h, the AUC(0-inf) was 185 ng·h/mL and the AUC(0-t) came out at 180 ng·h/mL. The half-life in series [3] (plasma, sc, individual animals) is 1.5 h. In series [3] (Mean), the “Xanomeline (SC) Tlast” value was 37.3 h. In series [3] (individual animals), the “Xanomeline (SC) AUC0-inf” value was determined as 123 ng·h/mL; the “Xanomeline (SC) AUC0-last” value was 213 ng·h/mL and 121 ng·h/mL; the “Xanomeline (SC) Cmax” value is 30.0 ng/mL and 44.4 ng/mL; the “Xanomeline (SC) T1/2” value is reported as 1.24 h. In addition, the “Xanomeline (SC) Tlast” value in series [3] (individual animals) was 8.00 h (2×) and 96.0 h.
